Assay results from PMC3413433, “A novel cytarabine crystalline lipid prodrug: Hexadecyloxypropyl cytarabine 3′,5′-cyclic monophosphate for proliferative vitreoretinopathy” (Molecular Vision, 2012).
Values joined by “and” are separate entries in the source; they are usually repeats but may differ in a detail not shown here. Equal values may be shown once. “Also recorded” adds a separate entry of the source. Marks after values point to notes of the source that are not given here.

What was measured:
[1] = system: rat eyes; experiment: Toxicity study of HDP-P-Ara-C in rat eyes (intravitreal injection); format: in vivo
Protocol: Twelve Brown Norway rats were used to evaluate the effect of intravitreal HDP-P-Ara-C versus control injection. […] Only one eye of each rat was injected with the drug, and the fellow eye was injected with saline as control. Electroretinograms (ERGs) were obtained before drug injection and 1 day before scheduled sacrifice. Following injection, toxicity and safety were evaluated with indirect ophthalmoscopy, biomicroscopy, and fundus photography. At week 2 following drug injections, all of the rats were euthanized with intraperitoneal injection of ketamine (100 mg/kg) and xylazine (10 mg/kg) followed by intraperitoneal injection of 120 mg/kg sodium pentobarbital. Six eyes were used for pathologic evaluation and six eyes used for evaluation of vitreous drug level. Vitreous drug levels were determined at the end of the experiment using high-performance liquid chromatography (HPLC).
(§1) Intraocular pressure (IOP) measurements and ERG recordings were repeated measurement data. Therefore, generalized estimating equations were used to compare the mean IOP and ERG amplitudes between each treatment group and the control group. All analyses were performed with SAS 9.2 software (SAS Institute Inc., Cary, NC), and the difference was considered to be significant when the p value was smaller than 0.05.

[2] = system: rMC-1 cells; experiment: Cell proliferation assay (rMC-1/XTT); format: cell-based; settings: Rattus norvegicus, 120 h, 5 days, XTT, read-out: 50% cytotoxicity concentration (CC50)
Protocol: (§2) Human retinal pigment epithelium (ARPE-19) cells were obtained from the American Type Culture Collection (ATCC; Manassas, VA). A rat Müller cell line, rMC-1, was provided by Dr. Gabe Silva at UC San Diego (originally obtained from Dr. Vijay Sarthy, Northwestern University, Chicago, IL). ARPE-19 cells were cultured in Dulbecco’s modified Eagle medium (DMEM)/F12 and rMC-1 in DMEM. DMEM/F12 medium and DMEM were maintained at 37 °C in a humidified chamber of 5% CO2. All culture media were supplemented with 10% fetal bovine serum, 100 U/ml penicillin, and 100 µg/ml streptomycin. The cell lines were chosen due to their dominant presence in the pathology of proliferative vitreoretinopathy.
rMC-1 cells were plated in 96-well plates at […] per well. Serial dilutions of the compounds were added to the wells in a total volume of 100 µl. The plates were maintained in a 37 °C incubator. After 5 days, 50 µl of a solution of XTT (Roche Molecular Biochemicals, Indianapolis, IN) was added to each well, and the plates returned to the incubator for 30 min, after which the […] (OD) of each well was measured at a wavelength of 450 nanometers. Percent inhibition was determined by comparing the OD of wells containing compound to the OD of control wells.

[3] = system: ARPE-19 cells; experiment: Cell proliferation assay (ARPE-19/WST-1); format: cell-based; settings: Homo sapiens, 120 h, 5 days, WST-1, read-out: 50% cytotoxicity concentration (CC50)
Protocol: as §2
ARPE-19 cells were plated in 96-well plates at […] per well. Serial dilutions of the compounds were added to the wells in a total volume of 100 µl. The plates were maintained in a 37 °C incubator. After 5 days, 10 µl of a solution of WST-1 (Roche Diagnostics, Indianapolis, IN) was added to each well, and the plates returned to the incubator for 0.5 h, after which the OD450 of each well was measured. Percent inhibition data were obtained from at least three experiments with at least six wells at each concentration in separate 96-well plates. […] The results were expressed as the percentage of the optical density of treated cells relative to that of untreated controls.

[4] = Simulated intravitreal clearance kinetics (dissolution chamber); format: in vitro ADME
Protocol: Dissolution starting from an intravitreal drug depot was simulated using a custom chamber and a syringe pump. The drug powder (600 µg) was weighed into the chamber, which had 1.5 ml of effective circulation volume to mimic the rabbit vitreous. The chamber was filled with 1.5 ml of Hank’s Balanced Salt Solution (HBSS). The chamber was then connected by tubing to a NE-1000 syringe pump (New Era Pump Systems, Farmingdale, NY) on one end and open tubing on the other end so that the solution could be collected into a vial (Figure 1). The syringe pump was set to a flow rate of 2 µl/min [12], and the syringe filled with HBSS. The entire setup was maintained at 37 °C and pumped continuously. This dissolution chamber mimics the rabbit vitreous fluid turnover only. […] At the same time every day, the vial was changed and the contents collected and stored at −80 °C until liquid chromatography/mass spectrometry (LC/MS) was performed.
Figure 1 The dissolution chamber is made of poly methyl methacrylate. Inlet tubing connects from a syringe pump to the upper part of the chamber, and the outlet tubing leaves from the lower part of the chamber to the sample collector. In the center of the dissolution chamber, a titanium mesh circle is installed to prevent the large drug particles reaching the lower chamber to possibly clog the outgoing tubing. The mesh contains […].

[5] = system: rabbit eyes; experiment: Toxicity study of HDP-cP-Ara-C in rabbit eyes (intravitreal injection); format: in vivo; settings: for Dark A amp (dark adapted ERG a-wave amplitude) / Dark B amp / Flicker amp / Light A amp / Light B amp: OD, n=4, in µV (unit assumed)
From the text: Sixteen New Zealand Red rabbits were used for this study. Only one eye of each animal was used for the drug testing, and the fellow eye was used as a control by injection of the diluent. […] After the intravitreal injection, the rabbits were examined at week 1, 2, 4, 8, and 12 and then once a month for 7 months. The eyes were monitored with slit-lamp exam, tonometry, indirect ophthalmoscope, and fundus camera. The drug depot size was estimated and recorded using the optic disc area and the drug depot contour in the vitreous. The number of disc areas for estimating the two dimensions of the drug depot and the contour (ball=3, patch=2, filaments and dots=1) provides an estimate of the density of the drug depot. ERGs were recorded from all animals at week 2, week 8, and immediately before the animals were euthanized by deeply anesthetizing the animals with a combined ketamine (24 mg/kg) and xylazine (6 mg/kg) intramuscular injection followed by an intravenous injection of 0.3 ml/kg B-euthanasia (Schering-Plough Animal Health, Kenilworth, NJ).
as §1

[6] = Water solubility (observation); format: physicochemical
[7] = design: method as in PMID 1917392; settings: unmodified nucleoside; cited from earlier work
[8] = system: experimental PVR; design: method as in PMID 10359331; settings: intravitreal injection; cited from earlier work
[9] = system: herpes simplex virus; design: method as in PMID 15505067; settings: single intravitreal injection; cited from earlier work

In the case of `CCCCCCCCCCCCCCCCOCCCOP(=O)(O)OC[C@H]1O[C@@H](n2ccc(N)nc2=O)[C@@H](O)[C@@H]1O` [HDP-P-Ara-C, hexadecyloxypropyl cytarabine 5′-monophosphate], the “depot formation in the vitreous” value ([1]; after intravitreal injection) is reported as “did not form a depot”, the ocular toxicity ([1]; intravitreal 2-228 µg/eye, 2 weeks) is reported as “no ocular toxicity was found” and the ERG and pathology ([1]; intravitreal, 2 weeks) is reported as “normal retinal physiology and histology”. For the same compound, the “vitreous drug level (HPLC)” value ([1]; week 2 after intravitreal injection, including highest dose 228 µg/eye) was “not detectable; also recorded: no drug was detectable; also recorded: no HDP-P-Ara-C was detected”, the CC50 [2] was 32 ± 2.2 µM and the CC50 [3] was 52 ± 2.6 µM. For the same compound, the “drug in eluate samples” value ([4]; day 7 and after) was “no drug was detected” and the “drug cleared from the chamber” value ([4]; within 3 days, flow rate 2 µl/min) was 99%.
For `CCCCCCCCCCCCCCCCOCCCOP1(=O)OC[C@H]2O[C@@H](n3ccc(N)nc3=O)[C@@H](O)[C@@H]2O1` (stereo partly shown) [HDP-cP-Ara-C, hexadecyloxypropyl cytarabine 3′,5′-cyclic monophosphate], the “TUNEL staining / retinal structure” value ([5]; 250 µg intravitreal, paraffin sections vs fellow eye) was “No structural abnormality or apoptosis; also recorded: normal structures and negative apoptosis staining”, the ERG examination ([5]; 250 µg or lower doses) was “did not reveal drug toxicity” and the “eyes with direct contact of drug depot with optic nerve or inferior retina (gliosis, discoloration)” value ([5]; 800 µg, 7-month study) was “two eyes out of the four eyes”. For the same compound, the “dark adapted a-wave and flicker ERG amplitude vs fellow control eyes” value ([5]; 800 µg/eye) was “significantly lower”, the “intraocular pressure, injected eyes vs fellow eyes” value ([5]; 25-800 µg/eye) was “no significant difference” and the “estimated time drug depot would be visible” value ([5]; 80 or 250 µg/eye, estimation of vitreal clearance) was 3 months. For the same compound, the “time drug depots visible” value ([5]; all doses (25-800 µg/eye)) was at least 2 months, the “Dark A amp (dark adapted ERG a-wave amplitude)” value (“Dark A amp” below) ([5]; high dose 250 µg/eye) was −15.6 and the “Dark B amp” value ([5]; high dose 250 µg/eye) was 83.19. For the same compound, the Flicker amp ([5]; high dose 250 µg/eye) was 25.07, the “Light A amp” value ([5]; high dose 250 µg/eye) was −3.57 and the “Light B amp” value ([5]; high dose 250 µg/eye) was 49.68. For the same compound, the “Dark A amp” value ([5]; highest dose 800 µg/eye) was −11.69, the “Dark B amp” value ([5]; highest dose 800 µg/eye) was 95.35 and the Flicker amp ([5]; highest dose 800 µg/eye) was 21.09. The “Light A amp” value ([5]; highest dose 800 µg/eye) was −5.57, the “Light B amp” value ([5]; highest dose 800 µg/eye) was 48.06 and the “time drug depot still visible” value ([5]; highest dose (800 µg/eye)) was at least 7 months. The well tolerated dose ([5]; intravitreal) was “up to 250 µg/eye”, the “Dark A amp” value ([5]; low dose 25 µg/eye) was −14.44 and the “Dark B amp” value ([5]; low dose 25 µg/eye) was 88.14. For the same compound, the Flicker amp ([5]; low dose 25 µg/eye) was 22.58, the “Light A amp” value ([5]; low dose 25 µg/eye) was −4.49 and the “Light B amp” value ([5]; low dose 25 µg/eye) was 47.93. For the same compound, the “Dark B amp” value ([5]; moderate dose 80 µg/eye) was 79.31, the Flicker amp ([5]; moderate dose 80 µg/eye) was 23.51 and the “Light A amp” value ([5]; moderate dose 80 µg/eye) was −5.64. For the same compound, the “Light B amp” value ([5]; moderate dose 80 µg/eye) was 42.83, the “AC cell (eyes affected/eyes)” value ([5]; week 1, 25 µg) was 0/4 and the “Fundus abnormality (eyes affected/eyes)” value ([5]; week 1, 25 µg) was 0/4. The “Vit. Clarity (eyes affected/eyes)” value ([5]; week 1, 25 µg, haze from vitreous hemorrhage during injection) was 1/4#, the “AC cell (eyes affected/eyes)” value ([5]; week 1, 80 µg) was 0/4 and the “Fundus abnormality (eyes affected/eyes)” value ([5]; week 1, 80 µg) was 0/4. For the same compound, the “Vit. Clarity (eyes affected/eyes)” value ([5]; week 1, 80 µg) was 0/4, the “AC cell (eyes affected/eyes)” value ([5]; week 1, 250 µg) was 0/4 and the “Fundus abnormality (eyes affected/eyes)” value ([5]; week 1, 250 µg) was 0/4. The “Vit. Clarity (eyes affected/eyes)” value ([5]; week 1, 250 µg) was 0/4, the “AC cell (eyes affected/eyes)” value ([5]; week 1, 800 µg) was 0/4 and the “Fundus abnormality (eyes affected/eyes)” value ([5]; week 1, 800 µg) was 0/4. For the same compound, the “Vit. Clarity (eyes affected/eyes)” value ([5]; week 1, 800 µg) was 0/4, the “AC cell (eyes affected/eyes)” value ([5]; week 8, 25 µg) was 0/4 and the “Fundus abnormality (eyes affected/eyes)” value ([5]; week 8, 25 µg) was 0/4. For the same compound, the “Vit. Clarity (eyes affected/eyes)” value ([5]; week 8, 25 µg) was 0/4, the “AC cell (eyes affected/eyes)” value ([5]; week 8, 80 µg) was 0/4 and the “Fundus abnormality (eyes affected/eyes)” value ([5]; week 8, 80 µg) was 0/4. The “Vit. Clarity (eyes affected/eyes)” value ([5]; week 8, 80 µg) was 0/4, the “AC cell (eyes affected/eyes)” value ([5]; week 8, 250 µg) was 0/4 and the “Fundus abnormality (eyes affected/eyes)” value ([5]; week 8, 250 µg) was 0/4. The “Vit. Clarity (eyes affected/eyes)” value ([5]; week 8, 250 µg) was 0/4, the “AC cell (eyes affected/eyes)” value ([5]; week 28, 800 µg) was 0/4 and the “Vit. Clarity (eyes affected/eyes)” value ([5]; week 28, 800 µg) was 0/4. The “Fundus abnormality (eyes affected/eyes)” value ([5]; week 28, 800 µg, direct contact of depot with medullary ray or inferior retina) was 2/4*, the water solubility [6] was “limited aqueous solubility; also recorded: minimally water soluble; also recorded: sparingly water soluble” and the CC50 [2] was 25 µM. The CC50 [3] was 50 µM, the “drug concentration in the eluate (low-level sustained release)” value ([4]; day 25 to day 36) was “about 16 ng/mL” and the “day of peak release” value ([4]; dissolution chamber eluate) was 9 days and ~10 days. The “hydrolysis to HDP-P-Ara-C during the dissolution experiment” value ([4]; eluate analysis, medium printed as PBS, HBSS) was “slow hydrolysis” and the “time still detectable in dissolution chamber eluate” value ([4]; end of experiment, flow rate 2 µL/min) was at least 36 days.
In the case of `Nc1ccn([C@@H]2O[C@H](CO)[C@@H](O)[C@@H]2O)c(=O)n1` [cytarabine, 1-β-D-arabinofuranosylcytosine], the intravitreal half-life [7] is given as at most 12 h.
In the case of `CCCCCCCCCCCCCCCCOCCCOP1(=O)OCC2OC(n3cc(F)c(=O)[nH]c3=O)CC2O1` (stereo not shown) [hexadecyloxypropyl 5-fluoro-2'-deoxyuridine cyclic 3′,5′-monophosphate], the “effect on experimental PVR” value [8] is listed as “inhibited experimental PVR”.
In the case of `CCCCCCCCCCCCCCCCOCCCOP1(=O)CO[C@@H](Cn2ccc(N)nc2=O)CO1` (stereo partly shown) [hexadecyloxypropyl cyclic cidofovir], the “duration of herpes simplex virus suppression” value [9] is listed as “up to 4 months”.
